In patent US6576620B2, “Method of identifying partial adenosine A1 receptor agonists” (CV Therapeutics, Inc., priority 1999, dated 2003):

Experiments:
[1] = tested on: guinea pig isolated heart; experiment: Coronary conductance, isolated heart; settings: for EC50: Cavia porcellus; for maximal increase of coronary conductance: this study, Compound 6 at 100 μM
Procedure: Coronary perfusion pressure (CPP) was measured using a pressure transducer, connected to the aortic cannula via a T-connector positioned approximately 3 cm above the heart. Coronary perfusion pressure was monitored throughout the experiment and recorded either on a chart recorder (Gould Recorder 2200S) or a computerized recording system (PowerLab/4S, ADInstruments Pty Ltd, Australia). Only hearts with CPP ranging from 60 to 85 mmHg (in the absence of drugs) were used in the study. Coronary conductance (in ml/min/mmHg) was calculated as the ratio between coronary perfusion rate (10 ml/min) and coronary perfusion pressure.
(§1) Guinea pigs (Hartley) of either sex weighing 300-350 g were anaesthetized with methoxyflurane and killed by decapitation. The chest was cut open and the heart was removed quickly and rinsed in ice-cold modified Krebs-Henseleit (K-H) solution. The contents of the modified K-H solution were (in mM): NaCl 117.9, KCl 4.8, CaCl2 2.5, MgSO2 1.18, KH2PO4 1.2, Na2 EDTA 0.5, ascorbic acid 0.14, dextrose 5.5, pyruvic acid (sodium salt) 2.0, and NaHCO3 25. The K-H solution was continuously gassed with 95% oxygen and 5% CO2, and the pH was adjusted to a value of 7.4. To perfuse the heart by the Langendorff method, the transected aorta was slid onto a glass cannula and secured by a ligature. Retrograde perfusion of the aorta was initiated immediately at a constant flow of 10 ml min-′ with modified K-H solution warmed to 36.0±0.5° C. A side port in the cannula was used to connect the perfusion line to a Gould pressure transducer for measurement of coronary perfusion pressure. Coronary perfusion pressure was continuously recorded on a strip chart (Gould RS3400, Cleveland, Ohio) throughout each experiment. Coronary conductance (in ml min^−1 mmHg^−1) was calculated as the ratio of coronary flow (10 ml min^−1) to perfusion pressure (mm Hg). To facilitate the exit of fluid from the left ventricle, the leaflets of the mitral valve were trimmed with fine spring-handled scissors. When appropriate, hearts were paced at a constant rate using external electrodes. After completion of dissection and instrumentation (see below) for measurement of either atrial rate, stimulus-to-His bundle (S-H) interval, monophasic action potentials, or coronary perfusion pressure, each heart was allowed to equilibrate for 20-40 min before the administration of drug. Experimental interventions were always preceded and followed by control measurements. Criteria for exclusion of hearts from study were (1) a coronary perfusion pressure of less than 50 mm Hg, (2) absence of a stable coronary perfusion pressure during the equilibration period, and (3) inability to pace a heart at a constant rate throughout an experiment.

[2] = tested on: guinea pig isolated heart; experiment: Spontaneous atrial rate, isolated heart; settings: for atrial rate: maximal effect, controls 195±6 (Compound 6) and 198±15 (CPA)
Source text: as §1
To measure spontaneous atrial rate in hearts that were not paced, a unipolar electrode was placed on the right atrium. A total of 10 atrial beats before, during, and after each intervention was recorded on chart paper moving at a rate of 50 mm per sec, and the average atrial rate at each time was determined from these records.

A1-AdoR = biological target: T1, A1-AdoR (Rattus norvegicus, UniProt P25099); experiment: 3H-CPX binding to rat adipocyte membranes; settings: for IC50: IC50 to reduce the binding of 3H-CPX; for Ki: Ki for reduction of 3H-CPX binding
T1 sequence (P25099 1-326): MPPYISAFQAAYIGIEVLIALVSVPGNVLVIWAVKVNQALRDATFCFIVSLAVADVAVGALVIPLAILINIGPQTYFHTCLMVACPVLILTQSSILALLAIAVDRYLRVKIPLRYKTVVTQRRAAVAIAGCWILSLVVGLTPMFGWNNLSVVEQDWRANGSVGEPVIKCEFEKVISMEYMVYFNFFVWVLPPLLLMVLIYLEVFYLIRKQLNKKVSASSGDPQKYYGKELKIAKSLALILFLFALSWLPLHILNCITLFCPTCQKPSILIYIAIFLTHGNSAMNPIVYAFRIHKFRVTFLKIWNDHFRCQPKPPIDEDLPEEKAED
Procedure: Membranes containing A1-AdoRs for use in radioligand binding assays were prepared from guinea pig cerebral cortex or from rat isolated epididymal adipocytes. Freshly-isolated guinea pig brain cortical tissue was homogenized in ice-cold 50 mM Tris-HCl buffer (pH 7.4) using six up and down strokes of an ice-chilled Potter-Elvejhem tissue grinder and a motor-driven teflon™ pestle. A crude membrane preparation was isolated by centrifugation of the homogenate at 15,000×g for 20 min at 4° C. The membrane pellet was resuspended in fresh Tris buffer and pelleted again by centrifugation. The final membrane pellet was suspended in Tris buffer to achieve a protein content of 1.1-1.4 mg/ml and divided into aliquots for storage at −80° C. until needed for assays. Adipocytes were isolated from 10 epididymal fat pads and suspended in a homogenization buffer (pH 7.3) containing 250 mM sucrose, 20 mM HEPES, 1 mM EDTA, 10 μg/ml leupeptin, and 5 μg/ml pepstatin. Cells were homogenized using an ice-chilled Potter-Elvehjem tissue grinder and a motor-driven teflon™ pestle. Cell membranes were separated from fat by centrifugation of the homogenate for 5 min at 1000×g at 4° C. The infranate below the fat cake was removed and placed in a centrifuge tube. Membranes were collected by centrifugation of the infranate for 30 min at 20,000×g at 4° C. Membranes were resuspended in buffer (pH 7.1 at room temperature) containing 154 mM NaCl, 10 mM MgCl2, 50 mM HEPES, 1 mM EDTA, 5 μg/ml leupeptin, 5 μg/ml pepstatin, and 5 U/ml adenosine deaminase, and stored as aliquots in liquid nitrogen until needed for assays.
The binding affinity of experimental agonists high and low affinity states of the A1-ADOR was determined. […] The presence of GTP reduces the availability of high affinity binding sites on the GPCR. Thus, the method allows for a discrimination between high and low binding affinities.
After a 3 hour incubation at room temperature. the reaction was terminated by diluting the samples with ice-cold Tris buffer and immediate collection of membranes onto glass-fiber filters (Schleicher and Schuell, Keene, N.H.) by vacuum filtration using a cell harvester (Brandel, Gaithersburg, Md.). Filters were washed quickly three times with ice-cold buffer to remove unbound radioligand. Filter discs containing trapped membranes and bound radioligand were placed in 4 ml of scintillation cocktail and radioactivity of samples was quantified using a liquid scintillation counter. […] Results of radioligand binding assays were analyzed using the Prism program from GraphPad (San Diego, Calif.).

Row | EC50 ([1]; estimate may be falsely low, limited solubility, read-out: concentration of half-maximal response (EC50), increase of coronary conductance) | IC50 (A1-AdoR; absence of GTP) | IC50 (A1-AdoR; presence of 1 mM GTP) | IC50 (A1-AdoR; presence of 1 mM GTP and 0.1 mM N-ethylmaleimide) | Ki (A1-AdoR; absence of GTP) | Ki (A1-AdoR; presence of 1 mM GTP) | IC50 with GTP and N-ethylmaleimide relative to GTP alone (A1-AdoR; adipocyte membranes) | difference of IC50 in absence and presence of GTP (A1-AdoR; rat, adipocyte membranes) | Compound | coronary conductance ([1]; CPA maximal, control 0.16±0.01) | EC50 ([1]; read-out: concentration of half-maximal increase of coronary conductance) | maximal increase of coronary conductance [1] | EC50 ([2]; Cavia porcellus, read-out: EC50 to decrease atrial rate) | atrial rate [2] | Hill slope (A1-AdoR; absence of GTP) | difference of IC50 in absence and presence of GTP (A1-AdoR; adipocyte membranes) | Hill slope (A1-AdoR; presence of 1 mM GTP) | coronary conductance ([1]; 10 μM compound, control 0.17±0.01) | coronary conductance ([1]; 100 μM compound, control 0.17±0.01) | effect on coronary conductance ([1]; concentrations ≦10 μM) | decrease of atrial rate ([2]; spontaneously-beating hearts)
1 | – | – | – | – | – | – | – | – | OC[C@H]1O[C@@H](n2cnc3c(NC4CCCC4)ncnc32)[C@H](O)[C@@H]1O [CPA, N^6-cyclopentyladenosine, reference compound] | 0.33±0.01 ml min^−1 mmHg-^1 | 0.071 µM | 0.17±0.02 ml min^−1 mmHg^−1 | 0.068 µM | 1±1 beats per minute | 0.88 | 10 fold | 1.0 | – | – | – | –
2 | 31 µM | 0.18 µM | 9.5 µM | 15 µM | 0.062 µM | 3.3 µM | 1.6 fold | 53 fold | CNC(=O)OC[C@H]1OC(n2cnc3c(N[C@@H]4CCOC4)ncnc32)[C@H](O)[C@@H]1O (stereo partly drawn) [Compound 6 of Example 2, [(5-{6-[((3R)oxolan-3-yl)amino]purin-9-yl}(3 S,2R,4R)-3,4-dihydroxyoxolan-2-yl)methoxy]-N-methylcarboxamide] | – | – | 0.09±0.01 ml min^−1 mmHg^−1 | – | 169±7 beats per minute | 0.87 | – | 1.0 | 0.185±0.01 ml min^−1 mmHg^−1 | 0.26±0.02 ml min^−1 mmHg^−1 | did not significantly change the coronary conductance | 13%
